Experimental data from patent US20250051283A1, “THERAPEUTIC COMPOUNDS AND METHODS” (priority 2023, published 2025).
Where “and” joins values, the source holds several entries; their conditions need not be identical. Equal entries are not always repeated.

Experiments:
[1] = system: R.D. cells; test: Cytotoxicity by neutral red uptake in R.D. cells, no viral infection; type: cell-based, Human
Experimental: (§1) Cell lines and viruses. Human rhabdomyosarcoma (R.D., ATCC, CCL-136) cells were maintained at 37° C. in a 5% CO2 atmosphere and cultured in Dulbecco's modified Eagle's medium (DMEM) supplemented with 10% fetal bovine serum (FBS) and 1% penicillin-streptomycin antibiotics. The following reagents were obtained through BEI Resources, NIAID, NIH: Human Enterovirus D68, US/MO/14-18949, NR-49130; Enterovirus D68, US/MO/14-18947, NR-49129; Enterovirus D68, US/IL/14-18952, NR-49131; Enterovirus D68, US/KY/14-18953, NR-49132; Enterovirus D68, US/IL/14-18956, NR-49133.
(§2) Antiviral assays. Cells for antiviral assays were seeded and grown overnight at 37° C. in a 5% CO2 atmosphere for ˜90% confluency the next day. For all infections, cells were washed with PBS containing magnesium and calcium and infected with virus diluted in DMEM with 2% FBS and 30 mM MgCl2. Viruses were incubated for at least 1 h at 33° C. in a 5% CO2 atmosphere, followed by the addition of compound as well as 1% penicillin-streptomycin. For CC50 measurements, the experiment was performed similarly but excluded viral infection. For cytopathic effect (CPE) assays, cells were stained with 66 µg/mL neutral red for 2 h and neutral red uptake was measured at absorbance 540 nm using a Multiskan FC Microplate Photometer (ThermoFisher Scientific). The EC50 and CC50 values were calculated from best-fit dose response curves using GraphPad Prism. For plaque reduction assays, an 1.2% avicel microcrystalline cellulose (FMC BioPolymer, Philadelphia, PA) overlay was used and cells were stained after 3 days as previously described^26.

[2] = system: EV-D68 US/IL/14-18952 (clade B2); test: Broad-spectrum antiviral activity (Table 1), US/IL/14-18952; type: cell-based, Enterovirus D68; conditions: Enterovirus D, EVD68
Experimental: as §1
as §2, with “For CC50 measurements, the experiment was performed similarly but excluded viral infection.” left out, “For plaque reduction assays, an 1.2% avicel microcrystalline cellulose (FMC BioPolymer, Philadelphia, PA) overlay was used and cells were stained after 3 days as previously described^26.” left out

[3] = system: EV-D68 US/KY/14-18953 (clade D); test: Broad-spectrum antiviral activity (Table 1), US/KY/14-18953; type: cell-based, Enterovirus D68; conditions: Enterovirus D, EVD68
Experimental: as §1
as §2, with “For CC50 measurements, the experiment was performed similarly but excluded viral infection.” left out, “For plaque reduction assays, an 1.2% avicel microcrystalline cellulose (FMC BioPolymer, Philadelphia, PA) overlay was used and cells were stained after 3 days as previously described^26.” left out

[4] = Cytotoxicity by neutral red uptake in R.D. cells, no viral infection; type: cell-based, Human; conditions: human, R.D. (rhabdomyosarcoma, ATCC CCL-136) cells, uninfected
Experimental: as §1, §2

[5] = molecular target: EV-D68 2A^pro (Enterovirus D68, UniProt A0A097BW19); test: FRET-based enzymatic assay of EV-D68 2Apro inhibition; type: biochemical; conditions: for IC50: read-out: Enzymatic inhibitory activity IC50
Experimental: (§3) Protein expression and purification. EV-D68 2A^pro gene from strain US/KY/14-18953 was ordered from Genscript (Piscataway, NJ) in pET28b(+) vector with E. coli codon optimization. 2A^pro gene was subcloned into pE-SUMOstar vector according to the manufacturers protocol. Plasmid encoding WT-2A^pro was transformed into BL21(DE3) competent E. coli cells, and a single colony was picked and used to inoculate 10 mL of L.B. grown supplemented with 50 μg/mL kanamycin at 37° C. at 250 rpm. The 10 mL inoculant was added to 1 L of L.B. with 50 μg/mL kanamycin and grown to an OD600 of 0.8-1.0, cooled to 18° C., then induced using 0.5 mM IPTG. Induced cultures were incubated at 18° C. for an additional 24 h, then harvested and resuspended in lysis buffer (25 mM Tris (pH 7.5); 750 mM NaCl, 2 mM DTT with 0.5 mg/mL lysozyme, 0.5 mM PMSF and 0.02 mg/mL DNase I) and lysed with alternating sonication and French press cycles. The cell debris were removed by centrifugation at 12,000×g for 45 min […]. The supernatant was incubated with Ni-NTA resin for over 2 h at 4° C. on a rotator. The Ni-NTA resin was thoroughly washed with 50 mM imidazole in wash buffer (50 mM Tris (pH 7.5), 150 mM NaCl, and 2 mM DTT); for the SUMO-tagged protein, the protein was directly eluted with 300 mM imidazole; for the nontagged 2A^pro Ni-NTA resin was treated with SUMO Protease 1 to remove the SUMO tag, then 2A^pro was washed off from the column with 10 mM imidazole in wash buffer. The imidazole was removed via dialysis or 10 K molecular weight cut-off centrifugal concentrator spin column. The purity of the protein was confirmed with SDS-PAGE. The protein concentration was determined by classic BCA assay using bovine serum albumin as a standard. EV-D68 3C^pro in pET28b(+) vector was expressed as previously described^10.
(§4) Peptide synthesis. The FRET substrate of EV-D68 2A^pro, Dabcyl-KIRIVNT/GPGFGGE-Edans, was synthesized using the Fmoc solid phase synthesis strategy.
(§5) Enzymatic assays. The reaction buffer contains 50 mM Tris (pH7.0), 150 mM NaCl, 10% Glycerol, and 2 mM DTT, and the reaction was carried out at 30° C. in Cytation 5 imaging reader (Fisher Scientific) with EX360/40-EM460/40 filter. Reactions were monitored every 90 sec. […] The reaction was initiated by adding 20 μM of FRET substrate, and the reaction was monitored for 2 hours and initial velocity was calculated for the first 30 minutes via linear regression.

[6] = system: EV-D68 US/MO/14-18947; test: CPE assay (neutral red) with EV-D68 US/MO/14-18947 in R.D. cells; type: cell-based, Enterovirus D68
Experimental: as §1, §2

[7] = molecular target: T1, EV-D68 2A^pro (WT-2A^pro, strain US/KY/14-18953, expressed in E. coli BL21(DE3) from pE-SUMOstar vector) (enterovirus D68, UniProt A0A097BW19); test: FRET-based enzymatic assay of EV-D68 2A^pro inhibition (FRET substrate Dabcyl-KIRIVNT/GPGFGGE-Edans); type: biochemical
T1 construct: E. coli-codon-optimised gene, pE-SUMOstar, His-SUMO tag (removed with SUMO protease for nontagged form), E. coli BL21(DE3), Ni-NTA; 7JRE is the C107A mutant
Experimental: (§6) FIG. 4. […] Key structural variations compared to telaprevir were highlighted in red. Enzymatic inhibitory activity IC50 value was determined in the FRET-based assay. Antiviral EC50 value was determined in the CPE assay with EV-D68 US/MO/14-18947 in R.D. cells. Cytotoxicity CC50 value was determined using the neutral red uptake method in R.D. cells. The results are the mean±standard deviation of two independent experiments with three repeats in each experiment.
as §6, with “5.” for “4.”, “Jun8861” for “telaprevir”
as §3, §4, §5

[8] = system: EV-D68 US/MO/14-18947; test: Secondary plaque reduction assay with EV-D68 US/MO/14-18947; type: cell-based, Enterovirus D68
Experimental: as §1
as §2, with “For CC50 measurements, the experiment was performed similarly but excluded viral infection.” left out, “For plaque reduction assays, an 1.2% avicel microcrystalline cellulose (FMC BioPolymer, Philadelphia, PA) overlay was used and cells were stained after 3 days as previously described^26.” left out

[9] = CPE assay, EV-D68 US/MO/14-18947 in R.D. cells
[10] = Enterovirus D, EVD68, RD, read-out: Antiviral EC50, CPE assay, EV-D68 US/MO/14-18947 in R.D. cells

## CCC[C@H](NC(=O)[C@@H]1[C@H]2CCC[C@H]2CN1C(=O)[C@@H](NC(=O)[C@@H](NC(=O)c1cnccn1)C1CCCCC1)C(C)(C)C)C(=O)C(=O)NC1CC1 [Telaprevir, reference compound]
[1]
  CC50: 83.2 µM
[2]
  EC50: 828 ± 107 nM
[3]
  EC50: 209 ± 37.1 nM

## CC(C)(C)C(NC(=O)CC12CC3CC(CC(C3)C1)C2)C(=O)N1CC2CCCC2C1C(=O)NC(Cc1ccccc1)C(=O)C(=O)NC1CC1 [Jun11385, (1S,3aR,6aS)-2-((S)-2-(2-((3S,5S,7S)-adamantan-1-yl)acetamido)-3,3-dimethylbutanoyl)-N—((S)-4-(cyclopropylamino)-3,4-dioxo-1-phenylbutan-2-yl)octahydrocyclopenta[c]pyrrole-1-carboxamide]
[4]
  CC50: 17.4 µM

## CC(C)(C)[C@H](NC(=O)CC12CC3CC(CC(C3)C1)C2)C(=O)N1C[C@@H]2CCC[C@@H]2[C@H]1C(=O)N[C@H](C(=O)C(=O)NC1CC1)C1CCCC1 [Jun11808, (1S,3aR,6aS)-2-((S)-2-(2-((3S,5S,7S)-adamantan-1-yl)acetamido)-3,3-dimethylbutanoyl)-N—((S)-1-cyclopentyl-3-(cyclopropylamino)-2,3-dioxopropyl)octahydrocyclopenta[c]pyrrole-1-carboxamide]
[5]
  enzymatic inhibition, in words, relative to the named comparator: comparable enzymatic inhibition and antiviral activity as Jun8861
[6]; [9]
  antiviral activity, in words, relative to the named comparator: comparable enzymatic inhibition and antiviral activity as Jun8861
[7]
  IC50: 200 ± 70 nM

## CCC[C@H](NC(=O)[C@@H]1[C@H]2CCC[C@H]2CN1C(=O)[C@@H](NC(=O)C=Cc1ccccc1)C(C)(C)C)C(=O)C(=O)NC1CC1 [Jun8813, (1S,3aR,6aS)-2-((S)-2-cinnamamido-3,3-dimethylbutanoyl)-N—((S)-1-(cyclopropylamino)-1,2-dioxohexan-3-yl)octahydrocyclopenta[c]pyrrole-1-carboxamide]
[5]
  enzymatic inhibition, in words, relative to the named comparator: reduced enzymatic inhibition and antiviral activity compared to telaprevir
[6]; [9]
  antiviral activity, in words, relative to the named comparator: reduced enzymatic inhibition and antiviral activity compared to telaprevir
[7]
  IC50: 760 ± 320 nM

## CCC[C@H](NC(=O)[C@@H]1[C@H]2CCC[C@H]2CN1C(=O)[C@@H](NC(=O)CC1CCCCC1)C(C)(C)C)C(=O)C(=O)NC1CC1 [Jun8814, (1S,3aR,6aS)-2-((S)-2-(2-cyclohexylacetamido)-3,3-dimethylbutanoyl)-N—((S)-1-(cyclopropylamino)-1,2-dioxohexan-3-yl)octahydrocyclopenta[c]pyrrole-1-carboxamide]
[5]
  IC50: 80 to 140 nM
[6]; [10]
  EC50: 160 to 750 nM
[7]
  IC50: 90 ± 10 nM

## CCC[C@H](NC(=O)[C@@H]1[C@H]2CCC[C@H]2CN1C(=O)[C@@H](NC(=O)Cc1ccccc1)C(C)(C)C)C(=O)C(=O)NC1CC1 [Jun8681, (1S,3aR,6aS)—N—((S)-1-(cyclopropylamino)-1,2-dioxohexan-3-yl)-2-((S)-3,3-dimethyl-2-(2-phenylacetamido)butanoyl)octahydrocyclopenta[c]pyrrole-1-carboxamide]
[5]
  enzymatic inhibition, in words, relative to the named comparator: reduced enzymatic inhibition and antiviral activity compared to telaprevir
[6]; [9]
  antiviral activity, in words, relative to the named comparator: reduced enzymatic inhibition and antiviral activity compared to telaprevir
[7]
  IC50: 250 ± 20 nM

## CCC[C@H](NC(=O)[C@@H]1[C@H]2CCC[C@H]2CN1C(=O)[C@@H](NC(=O)CC12CC3CC(CC(C3)C1)C2)C(C)(C)C)C(=O)C(=O)NC1CC1 [Jun8861]
[5]
  IC50: 80 to 140 nM and 80 nM
[6]; [10]
  EC50: 160 to 750 nM
[6]; read-out: Antiviral EC50, CPE assay, EV-D68 US/MO/14-18947 in R.D. cells
  EC50: 160 nM
[1]
  CC50: 36.2 µM

## CCC(C)[C@H](NC(=O)[C@@H]1[C@H]2CCC[C@H]2CN1C(=O)[C@@H](NC(=O)CC12CC3CC(CC(C3)C1)C2)C(C)(C)C)C(=O)C(=O)NC1CC1 (stereo partly drawn) [Jun11756, (1S,3aR,6aS)-2-((S)-2-(2-((3S,5S,7S)-adamantan-1-yl)acetamido)-3,3-dimethylbutanoyl)-N-((3S,4S)-1-(cyclopropylamino)-4-methyl-1,2-dioxohexan-3-yl)octahydrocyclopenta[c]pyrrole-1-carboxamide]
[5]
  enzymatic inhibition, in words, relative to the named comparator: comparable enzymatic inhibition and antiviral activity as Jun8861
[6]; [9]
  antiviral activity, in words, relative to the named comparator: comparable enzymatic inhibition and antiviral activity as Jun8861
[8]
  EC50: 13.5 nM

## CCC[C@H](NC(=O)[C@@H]1[C@H]2CCC[C@H]2CN1C(=O)[C@@H](NC(=O)CC1CCC(F)(F)CC1)C(C)(C)C)C(=O)C(=O)NC1CC1 [Jun975, (1S,3aR,6aS)—N—((S)-1-(cyclopropylamino)-1,2-dioxohexan-3-yl)-2-((S)-2-(2-(4,4-difluorocyclohexyl)acetamido)-3,3-dimethylbutanoyl)octahydrocyclopenta[c]pyrrole-1-carboxamide]
[5]
  IC50: 80 to 140 nM
[6]; [10]
  EC50: 160 to 750 nM
[7]
  IC50: 140 ± 10 nM

## CCC[C@H](NC(=O)[C@@H]1[C@H]2CCC[C@H]2CN1C(=O)[C@@H](NC(=O)CC1CCCC1)C(C)(C)C)C(=O)C(=O)NC1CC1 [Jun971, (1S,3aR,6aS)-2-((S)-2-(2-cyclopentylacetamido)-3,3-dimethylbutanoyl)-N—((S)-1-(cyclopropylamino)-1,2-dioxohexan-3-yl)octahydrocyclopenta[c]pyrrole-1-carboxamide]
[5]
  IC50: 80 to 140 nM
[6]; [10]
  EC50: 160 to 750 nM
[7]
  IC50: 100 ± 10 nM
